Like-named read-outs stand apart in the source and are kept apart here.
How the values were obtained:
human CB1 receptor [1] = target: T1, human CB1 receptor (Homo sapiens, UniProt P21554); test: Binding assay for CB1 agonists or inverse agonists ([3H]-CP-55,940 displacement, SK-N-MC membranes); details: for inhibition at 0.25 µM: read-out: CB1 receptor binding percent inhibition
T1 construct: expressed in transfected cells; host or cells: SK-N-MC cells, stably transfected with pcDNA3 CB-1 (human); semi-purified membrane pellet
Protocol: (§1) The human CB1 and CB2 receptors were stably expressed in SK-N-MC cells transfected with pcDNA3 CB-1 (human) or pcDNA3 CB-2 (human). The cells were grown in T-180 cell culture flasks under standard cell culture conditions at 37° C. in a 5% CO2 atmosphere. The cells were harvested by trysinization and homogenized in a homogenization buffer (10 mM Tris, 0.2 mM MgCl2, 5 mM KCl, with protease inhibitors aprotinin, leupeptin, pepstatin A and bacitracin) and centrifuged (2000 g). The supernatant was then centrifuged in 2M sucrose (31,300 g) to produce a semi-purified membrane pellet. The pellet was resuspended in homogenization and stored at −80° C.
(§2) On the day of the assay, the pellet was thawed on ice and diluted in assay buffer (50 mM Tris-HCl, 5 mM MgCl2, 2.5 mM EDTA, 0.5 mg/mL fatty acid free bovine serum albumin, pH 7.5). […] The plate was covered and incubated for 90 minutes at 30° C. The contents were then aspirated onto a Packard Unifilter GF/C filter bottom plate prewet with 0.5% polyethyleneimine. The wells of the polypropylene plate were rinsed and aspirated seven times with a 0.9% saline-0.5% Tween 20 solution. The Unifilter plate was dried, a scintillation cocktail was added to each well and the counts representing binding were quantitated in a TopCount scintillation counter.
(§3) For compounds tested, an IC50 binding value was obtained from percent inhibition studies in which various test concentrations were used. The binding value was calculated by linear regression.

human CB2 receptor = target: T2, human CB2 receptor (Homo sapiens, UniProt P34972); test: Binding assay for CB2 agonists or inverse agonists ([3H]-CP-55,940 displacement, SK-N-MC membranes); details: read-out: CB2 receptor binding percent inhibition
T2 construct: expressed in transfected cells; host or cells: SK-N-MC cells, stably transfected with pcDNA3 CB-2 (human); semi-purified membrane pellet
Protocol: as §1, §2, §3

human CB1 receptor [2] = target: T1, human CB1 receptor; test: Functional cell-based assay, CB1 receptor mediated change in CRE β-gal expression (adenylate cyclase activity); details: for CB1 Receptor Functional Activity (change in functional activity): one compound concentration, vehicle treated cell = 100%
Description: The CB1 and CB2 receptors are G-protein coupled receptors (GPCR), which influence cell function via the Gi-protein. These receptors modulate the activity of intracellular adenylate cyclase, which in turn produces the intracellular signal messenger cyclic-AMP (cAMP).
At baseline, or during non-ligand bound conditions, these receptors are constitutively active and tonically suppress adenylate cyclase activity. The binding of an agonist causes further receptor activation and produces additional suppression of adenylate cyclase activity. The binding of an inverse agonist inhibits the constitutive activity of the receptors and results in an increase in adenylate cyclase activity.
Test compounds were evaluated in SK-N-MC cells which, using standard transfection procedures, were stably transfected with human cDNA for pcDNA3-CRE β-gal and pcDNA3 CB1 receptor (human) or pcDNA3 CB2 receptor (human). By expressing CRE β-gal, the cells produced β-galactosidase in response to CRE promoter activation by cAMP. Cells expressing CRE β-gal and either the human CB1 or CB2 receptor will produce less β-galactosidase when treated with a CB1/CB2 agonist and will produce more β-galactosidase when treated with a CB1/CB2 inverse agonist.
The cells were grown in 96-well plates under standard cell culture conditions at 37° C. in a 5% CO2 atmosphere. After 3 days, the media was removed and a test compound in media (wherein the media was supplemented with 2 mM L-glutamine, […] sodium pyruvate, 0.1% low fatty acid FBS (fetal bovine serum) and antibiotics) was added to the cell. The plates were incubated for 30 minutes at 37° C. and the plate cells were then treated with forskolin over a 4-6 hour period, then washed and lysed. The β-galactosidase activity was quantitated using commercially available kit reagents (Promega Corp. Madison, Wis.) and a Vmax Plate Reader (Molecular Devices, Inc).
The change in β-galactosidase activity was determined by setting a vehicle treated cell's activity value at 100% and expressing the β-galactosidase activity measured in a corresponding compound treated cell as a percent of the vehicle treated cell activity.
The EC50 value for functional activity for compounds tested was calculated by linear regression and was obtained from studies in which varying compound concentrations were used.
Where an EC50 value was not obtained for a test compound, the value shown (in %) represents change in functional activity and was obtained from a study in which one compound concentration was used.

[3] = test concentration 0.25 μM (footnote 3)
[4] = CB1 Receptor Functional Inverse Agonist EC50, SK-N-MC cells, CRE β-gal, forskolin

T2 sequence (P34972 whole entry): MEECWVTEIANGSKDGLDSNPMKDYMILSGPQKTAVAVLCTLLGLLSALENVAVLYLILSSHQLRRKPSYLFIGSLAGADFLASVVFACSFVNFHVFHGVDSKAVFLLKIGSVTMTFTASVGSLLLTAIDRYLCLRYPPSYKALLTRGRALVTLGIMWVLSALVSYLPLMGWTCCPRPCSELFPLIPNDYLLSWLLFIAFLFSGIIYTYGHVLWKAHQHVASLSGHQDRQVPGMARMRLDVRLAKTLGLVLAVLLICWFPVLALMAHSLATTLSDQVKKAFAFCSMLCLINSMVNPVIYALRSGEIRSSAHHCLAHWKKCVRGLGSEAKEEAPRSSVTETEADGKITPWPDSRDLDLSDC
T1 sequence (P21554 whole entry): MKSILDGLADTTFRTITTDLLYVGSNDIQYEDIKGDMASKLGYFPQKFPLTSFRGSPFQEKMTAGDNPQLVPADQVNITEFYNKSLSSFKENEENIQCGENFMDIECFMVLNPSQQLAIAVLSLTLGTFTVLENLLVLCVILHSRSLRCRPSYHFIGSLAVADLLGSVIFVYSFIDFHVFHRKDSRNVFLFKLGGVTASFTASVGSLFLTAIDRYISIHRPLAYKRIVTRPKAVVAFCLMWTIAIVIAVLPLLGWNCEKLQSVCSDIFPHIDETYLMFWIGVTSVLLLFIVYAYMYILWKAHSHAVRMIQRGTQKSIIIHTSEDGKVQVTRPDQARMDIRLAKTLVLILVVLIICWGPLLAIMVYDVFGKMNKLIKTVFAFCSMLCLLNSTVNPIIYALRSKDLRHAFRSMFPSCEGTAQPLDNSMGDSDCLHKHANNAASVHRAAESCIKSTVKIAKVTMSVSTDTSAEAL

Compound	inhibition at 0.25 µM (human CB1 receptor [1]; [3])	inhibition at 0.25 µM (human CB2 receptor; [3])	EC50 (human CB1 receptor [2]; [4])	EC50 (human CB1 receptor [2])	CB1 Receptor Functional Activity (change in functional activity) (human CB1 receptor [2])	inhibition at 0.25 µM (human CB1 receptor [1])	inhibition at 0.25 µM (human CB2 receptor)	IC50 (human CB1 receptor [1])
C[C@@H](NS(=O)(=O)/C=C/c1nn(-c2ccc(F)cc2F)c2c1CCC2Cc1cccc(F)c1)C1CCCCC1 (stereo partly drawn) [Cpd 5, (2E)-2-[1-(2,4-difluoro-phenyl)-6-(3-fluoro-benzyl)-1,4,5,6-tetrahydro-cyclopentapyrazol-3-yl]-ethenesulfonic acid [(1R)-1-cyclohexyl-ethyl]-amide]	44%	4%	200 nM					
O=C(NN1CCCCC1)c1nn(-c2ccc(F)cc2F)c2c1CCC2Cc1cccc(F)c1 (stereo not shown) [Cpd 6, 1-(2,4-difluoro-phenyl)-6-(3-fluoro-benzyl)-1,4,5,6-tetrahydro-cyclopentapyrazole-3-carboxylic acid piperidin-1-ylamide]	4%	12%		200 nM				
O=C(c1nn(-c2ccc(F)cc2F)c2c1CCC2Cc1cccc(F)c1)N1CCCCC1 (stereo not shown) [Cpd 8, [1-(2,4-difluoro-phenyl)-6-(3-fluoro-benzyl)-1,4,5,6-tetrahydro-cyclopentapyrazol-3-yl]-piperidin-1-yl-methanone]	6%	0%			21%			
CCOC(=O)[C@H]1C2CCC(C2)[C@H]1NC(=O)c1nn(-c2ccc(F)cc2F)c2c1CCC2Cc1cccc(F)c1 (stereo partly drawn) [Cpd 13, (2S,3R)-3-{[1-(2,4-difluoro-phenyl)-6-(3-fluoro-benzyl)-1,4,5,6-tetrahydro-cyclopentapyrazole-3-carbonyl]-amino}-bicyclo[2.2.1]heptane-2-carboxylic acid ethyl ester]	58%	44%			24%			
COC(=O)[C@@H](Cc1ccc(F)cc1)NC(=O)c1nn(-c2ccc(F)cc2F)c2c1CCC2Cc1cccc(F)c1 (stereo partly drawn) [Cpd 14, (2R)-2-{[1-(2,4-difluoro-phenyl)-6-(3-fluoro-benzyl)-1,4,5,6-tetrahydro-cyclopentapyrazole-3-carbonyl]-amino}-3-(4-fluoro-phenyl)-propionic acid methyl ester]	50%	30%			48%			
COC(=O)[C@@H](Cc1ccc(O)cc1)NC(=O)c1nn(-c2ccc(F)cc2F)c2c1CCC2Cc1cccc(F)c1 (stereo partly drawn) [Cpd 15, (2R)-2-{[1-(2,4-difluoro-phenyl)-6-(3-fluoro-benzyl)-1,4,5,6-tetrahydro-cyclopentapyrazole-3-carbonyl]-amino}-3-(4-hydroxy-phenyl)-propionic acid methyl ester]	54%	50%			−15%			
O=C(NCc1ccccc1)c1nn(-c2ccc(F)cc2F)c2c1CCC2Cc1cccc(F)c1 (stereo not shown) [Cpd 16, 1-(2,4-difluoro-phenyl)-6-(3-fluoro-benzyl)-1,4,5,6-tetrahydro-cyclopentapyrazole-3-carboxylic acid benzylamide]		0%	400 nM			26%		
C[C@H](NC(=O)c1nn(-c2ccc(F)cc2F)c2c1CCC2Cc1cccc(F)c1)c1ccccc1 (stereo partly drawn) [Cpd 18, 1-(2,4-difluoro-phenyl)-6-(3-fluoro-benzyl)-1,4,5,6-tetrahydro-cyclopentapyrazole-3-carboxylic acid [(1S)-1-phenyl-ethyl]-amide]	66%	19%		10000 nM				
C[C@@H](NC(=O)c1nn(-c2ccc(F)cc2F)c2c1CCC2Cc1cccc(F)c1)c1ccccc1 (stereo partly drawn) [Cpd 19, 1-(2,4-difluoro-phenyl)-6-(3-fluoro-benzyl)-1,4,5,6-tetrahydro-cyclopentapyrazole-3-carboxylic acid [(1R)-1-phenyl-ethyl]-amide]	52%	26%		200 nM				
C[C@H](NC(=O)c1nn(-c2ccc(F)cc2F)c2c1CCC2Cc1cccc(F)c1)C1CCCCC1 (stereo partly drawn) [Cpd 20, 1-(2,4-difluoro-phenyl)-6-(3-fluoro-benzyl)-1,4,5,6-tetrahydro-cyclopentapyrazole-3-carboxylic acid [(1S)-1-cyclohexyl-ethyl]-amide]					37%	70%	44%	
C[C@@H](NC(=O)c1nn(-c2ccc(F)cc2F)c2c1CCC2Cc1cccc(F)c1)C1CCCCC1 (stereo partly drawn) [Cpd 21, 1-(2,4-difluoro-phenyl)-6-(3-fluoro-benzyl)-1,4,5,6-tetrahydro-cyclopentapyrazole-3-carboxylic acid [(1R)-1-cyclohexyl-ethyl]-amide]			40 nM			67%	61%	80 nM

From patent publication US8119621B2, “Tetrahydro-cyclopentyl pyrazole cannabinoid modulators” (Janssen Pharmaceutica N.V., priority 2005, dated 2012)
